Like-named read-outs stand apart in the source and are kept apart here.
Tests used:
human ALK = target: T1, human ALK (Homo sapiens, UniProt Q9UM73); assay: ALK kinase mobility shift assay (Caliper LC3000); format: biochemical; settings: ATP 30 μM (Km) or 5 mM, not specified which
T1 construct: GST (N); purchased Invitrogen, Carlsbad, Calif; (or prepared by AstraZeneca); host or cells: insect cells
Procedure: ALK kinase activity was determined by measuring the kinase's ability to phosphorylate a tyrosine residue within a peptide substrate using a mobility shift assay on a Caliper LC3000 reader (Caliper Life Sciences, Hopkinton, Mass.), which measures fluorescence of the phosphorylated and unphosphorylated substrate and calculates a ratiometric value to determine percent turnover.
To measure ALK kinase activity, the ALK enzyme used was N-terminal GST-tagged, recombinant, human ALK, amino acids 1058-1620 (Genbank Accession number NP_004295) expressed in insect cells and activated in-vitro via autophosphorylation. This was either purchased from a commercially available source (Invitrogen, Carlsbad, Calif.) or prepared by AstraZeneca. The kinase was incubated with a FAM labeled SRCtide substrate (5FAM-GEEPLYWSFPAKKK-NH2, AnaSpec, Fremont, Calif.), 30 μM adenosine triphosphate (ATP, at Km concentration) or 5 mM ATP, 50 mM HEPES buffer (pH 7.3), 1 mM DTT, 0.01% Tween 20, 50 μg/ml BSA and 10 mM MgCl2 for 90 minutes at room temperature. After this time, the kinase reaction was stopped by adding quenching buffer containing final concentrations of 36 mM ethylenediaminetetraacetic acid (EDTA), 65 mM HEPES buffer (pH 7.3), 0.2% Coatin Reagent 3 (Caliper Life Sciences, Hopkinton, Mass.), and 0.003% Tween 20. The reaction was performed in 384 well microtitre plates and the reaction products were detected using the Caliper LC3000 Reader in the presence of separation buffer consisting of 100 mM HEPES (pH 7.3), 15.8 mM EDTA, 0.1% Coatin Reagent 3 (Caliper, Mass.), 0.015% Brij-35, 5% DMSO, and 5.6 mM MgCl2. The separation conditions set up on the Caliper LC3000 were −1.7 PSI, −400V upstream voltage, −2000V downstream voltage, 0.2 second sample sip, 45 second post sip, and 150 seconds final delay. The percentage of inhibition of ALK enzyme activity by compounds were measured based on Max signals (DMSO control) and Min signals (EDTA control) in the plates. Data was graphed and IC50s calculated by IDBS ActivityBase program.

ALK (h) = ALK (h) (Homo sapiens, UniProt Q9UM73); assay: alternate ALK protocol (33P-ATP filter-binding radiometric assay); format: biochemical; settings: 250 μM KKKSPGEYVNIEFG substrate, [γ-33P-ATP], 40 minutes at room temperature, read-out: ALK inhibitory activities (IC50s (μM))
Procedure: Examples 1, 9 and 10 were additionally tested using an alternate ALK protocol as follows: ALK (h) was incubated with 8 mM MOPS pH 7.0, 0.2 mM EDTA, 250 μM KKKSPGEYVNIEFG, 10 mM MgAcetate and [γ-33P-ATP] (specific activity approx. 500 cpm/pmol, concentration as required). The reaction was initiated by the addition of the MgATP mix. After incubation for 40 minutes at room temperature, the reaction was stopped by the addition of 3% phosphoric acid solution. 10 μL of the reaction was spotted onto a P30 filtermat and washed three times for 5 minutes in 75 mM phosphoric acid and once in methanol prior to drying and scintillation counting. When tested in the assay described above, Examples 1, 9 and 10 each had ALK inhibitory activities (IC50s (μM)) of 0.004, 0.019, and 0.006, respectively.

[1] = geometric means of multiple test runs, as presented in the priority filings, read-out: ALK Enzyme IC50 (μM)*
[2] = cumulative geometric means including test re-runs, some obtained since the priority filings, read-out: ALK Enzyme IC50 (μM)**

T1 sequence (Q9UM73 1058-1620): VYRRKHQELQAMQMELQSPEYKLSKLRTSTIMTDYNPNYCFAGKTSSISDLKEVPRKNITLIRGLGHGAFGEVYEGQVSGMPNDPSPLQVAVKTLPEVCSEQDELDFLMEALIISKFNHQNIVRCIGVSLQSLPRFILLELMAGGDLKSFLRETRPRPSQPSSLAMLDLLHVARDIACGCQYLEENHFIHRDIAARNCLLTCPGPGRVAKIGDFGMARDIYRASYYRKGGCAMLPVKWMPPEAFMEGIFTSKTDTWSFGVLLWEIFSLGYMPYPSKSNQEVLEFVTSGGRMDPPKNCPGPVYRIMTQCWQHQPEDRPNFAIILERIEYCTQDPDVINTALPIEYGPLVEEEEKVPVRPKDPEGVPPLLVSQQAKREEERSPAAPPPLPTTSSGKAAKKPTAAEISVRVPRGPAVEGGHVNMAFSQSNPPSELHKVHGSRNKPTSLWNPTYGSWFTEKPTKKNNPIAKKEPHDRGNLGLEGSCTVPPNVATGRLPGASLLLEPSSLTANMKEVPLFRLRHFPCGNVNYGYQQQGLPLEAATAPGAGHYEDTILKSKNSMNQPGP
Sequence of ALK (h) (Q9UM73 19-1620): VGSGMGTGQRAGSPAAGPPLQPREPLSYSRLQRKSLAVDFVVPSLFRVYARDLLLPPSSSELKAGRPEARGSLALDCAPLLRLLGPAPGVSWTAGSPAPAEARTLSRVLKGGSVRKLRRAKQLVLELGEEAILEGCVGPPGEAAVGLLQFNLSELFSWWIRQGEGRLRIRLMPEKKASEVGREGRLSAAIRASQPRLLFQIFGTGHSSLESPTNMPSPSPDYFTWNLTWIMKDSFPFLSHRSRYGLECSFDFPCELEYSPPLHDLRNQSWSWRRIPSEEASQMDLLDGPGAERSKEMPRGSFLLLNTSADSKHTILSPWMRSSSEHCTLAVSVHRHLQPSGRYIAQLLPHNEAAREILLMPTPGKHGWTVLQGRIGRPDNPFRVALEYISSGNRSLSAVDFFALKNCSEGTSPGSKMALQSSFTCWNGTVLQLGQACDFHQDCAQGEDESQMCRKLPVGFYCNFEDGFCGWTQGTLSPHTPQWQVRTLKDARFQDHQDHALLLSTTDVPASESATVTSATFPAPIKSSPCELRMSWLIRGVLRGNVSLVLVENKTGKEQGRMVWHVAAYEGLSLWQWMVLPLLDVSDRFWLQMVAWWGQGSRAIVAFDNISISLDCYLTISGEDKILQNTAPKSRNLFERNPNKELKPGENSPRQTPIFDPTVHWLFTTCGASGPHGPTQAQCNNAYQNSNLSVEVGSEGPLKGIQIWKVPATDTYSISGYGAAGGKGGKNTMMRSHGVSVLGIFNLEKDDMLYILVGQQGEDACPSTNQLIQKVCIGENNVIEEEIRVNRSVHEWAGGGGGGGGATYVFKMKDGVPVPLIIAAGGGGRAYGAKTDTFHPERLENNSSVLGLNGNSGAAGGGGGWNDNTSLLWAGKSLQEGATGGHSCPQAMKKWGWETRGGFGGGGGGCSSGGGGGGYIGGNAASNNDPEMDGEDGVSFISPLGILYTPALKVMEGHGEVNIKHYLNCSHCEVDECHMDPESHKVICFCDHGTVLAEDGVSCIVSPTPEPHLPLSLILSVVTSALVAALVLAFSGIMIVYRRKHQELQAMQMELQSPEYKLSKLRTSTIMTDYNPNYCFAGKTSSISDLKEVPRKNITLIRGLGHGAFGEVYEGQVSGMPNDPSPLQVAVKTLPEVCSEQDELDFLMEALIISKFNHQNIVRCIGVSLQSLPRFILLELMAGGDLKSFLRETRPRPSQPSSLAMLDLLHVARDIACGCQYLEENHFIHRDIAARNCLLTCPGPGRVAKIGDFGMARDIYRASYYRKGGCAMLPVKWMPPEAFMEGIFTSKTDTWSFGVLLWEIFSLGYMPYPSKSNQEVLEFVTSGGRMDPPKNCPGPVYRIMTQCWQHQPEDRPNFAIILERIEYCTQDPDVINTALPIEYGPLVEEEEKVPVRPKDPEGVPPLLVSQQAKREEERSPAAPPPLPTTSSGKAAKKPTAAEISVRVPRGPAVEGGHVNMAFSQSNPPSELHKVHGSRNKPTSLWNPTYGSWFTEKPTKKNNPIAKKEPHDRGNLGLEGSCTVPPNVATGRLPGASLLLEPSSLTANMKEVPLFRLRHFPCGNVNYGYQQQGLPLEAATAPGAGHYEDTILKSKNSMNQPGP

| IC50 (human ALK; [1]) | IC50 (ALK (h)) | IC50 (human ALK; [2]) | SMILES |
| --- | --- | --- | --- |
| 0.02 µM | 0.006 µM | – | COc1cc(N2CCC(N3CCN(C)CC3)CC2)ccc1Nc1ncc(Cl)c(-c2c[nH]c3ccccc23)n1 [Example 10, 5-Chloro-4-(1H-indol-3-yl)-N-(2-methoxy-4-(4-(4-methylpiperazin-1-yl)piperidin-1-yl)phenyl)pyrimidin-2-amine] |
| 0.05 µM | 0.019 µM | 0.068 µM | COc1cc(N2CCC(N3CCN(C)CC3)CC2)ccc1Nc1ncc(C)c(-c2c[nH]c3ccccc23)n1 [Example 9, 4-(1H-Indol-3-yl)-N-(2-methoxy-4-(4-(4-methylpiperazin-1-yl)piperidin-1-yl)phenyl)-5-methylpyrimidin-2-amine] |
| – | – | 0.022 µM | COc1cc(N2CCC(N)C(F)C2)ccc1Nc1ncc(Cl)c(-c2c[nH]c3ccccc23)n1 (single isomer, unassigned) [Example 50, (cis)-N-(4-(4-amino-3-fluoropiperidin-1-yl)-2-methoxyphenyl)-5-chloro-4-(1H-indol-3-yl)pyrimidin-2-amine] |
| 0.098 µM | – | – | COc1cc(N2CCC(N)CC2)ccc1Nc1ncc(Cl)c(-c2cn(C)c3ccccc23)n1 [Example 35, N-(4-(4-aminopiperidin-1-yl)-2-methoxyphenyl)-5-chloro-4-(1-methyl-1H-indol-3-yl)pyrimidin-2-amine] |
| 0.019 µM | – | – | COc1cc(N2CCC(N(C)C)CC2)c(C)cc1Nc1ncc(Cl)c(-c2c[nH]c3ccccc23)n1 [Example 16, 5-Chloro-N-(4-(4-(dimethylamino)piperidin-1-yl)-2-methoxy-5-methylphenyl)-4-(1H-indol-3-yl)pyrimidin-2-amine] |
| 0.027 µM | – | – | COc1cc(N2CCC(N)CC2)c(C)cc1Nc1ncc(Cl)c(-c2c[nH]c3ccccc23)n1 [Example 18, N-(4-(4-Aminopiperidin-1-yl)-2-methoxy-5-methylphenyl)-5-chloro-4-(1H-indol-3-yl)pyrimidin-2-amine] |
| 0.088 µM | – | 0.136 µM | CNC1CCN(c2ccc(Nc3ncc(Cl)c(-c4c[nH]c5ccccc45)n3)c(OC)c2)CC1(C)C (stereo not shown) [Example 31, 5-chloro-N-(4-(3,3-dimethyl-4-(methylamino)piperidin-1-yl)-2-methoxyphenyl)-4-(1H-indol-3-yl)pyrimidin-2-amine] |
| 0.052 µM | – | – | CNC1CCN(c2ccc(Nc3ncc(C)c(-c4c[nH]c5ccccc45)n3)c(OC)c2)CC1 [Example 4, 4-(1H-Indol-3-yl)-N-(2-methoxy-4-(4-(methylamino)piperidin-1-yl)phenyl)-5-methylpyrimidin-2-amine] |
| 0.198 µM | – | – | COc1cc(N2CCC(N3CCN(C)CC3)CC2)c(Cl)cc1Nc1ncc(Cl)c(-c2c[nH]c3ccccc23)n1 [Example 40, 5-chloro-N-[5-chloro-2-methoxy-4-[4-(4-methylpiperazin-1-yl)-1-piperidyl]phenyl]-4-(1H-indol-3-yl)pyrimidin-2-amine] |
| 0.052 µM | – | – | COc1cc(N2CCC(N)CC2)c(C)cc1Nc1ncc(C)c(-c2c[nH]c3ccccc23)n1 [Example 19, N-(4-(4-aminopiperidin-1-yl)-2-methoxy-5-methylphenyl)-4-(1H-indol-3-yl)-5-methylpyrimidin-2-amine] |
| 0.015 µM | 0.004 µM | 0.021 µM | COc1cc(N2CCC(N)CC2)ccc1Nc1ncc(Cl)c(-c2c[nH]c3ccccc23)n1 [Example 1, N-(4-(4-Aminopiperidin-1-yl)-2-methoxyphenyl)-5-chloro-4-(1H-indol-3-yl)pyrimidin-2-amine] |
| 0.041 µM | – | 0.079 µM | COc1cc(N2CCC(N3CCN(C)CC3)CC2)ccc1Nc1ncc(F)c(-c2c[nH]c3ccccc23)n1 [Example 7, 5-Fluoro-4-(1H-Indol-3-yl)-N-(2-methoxy-4-(4-(4-methylpiperazin-1-yl)piperidin-1-yl)phenyl)pyrimidin-2-amine] |
| 0.148 µM | – | – | COc1cc(N2CCC(N3CCN(C)CC3)CC2)ccc1Nc1ncc(Cl)c(-c2cn(C)c3ccccc23)n1 [Example 34, 5-Chloro-N-(2-methoxy-4-(4-(4-methylpiperazin-1-yl)piperidin-1-yl)phenyl)-4-(1-methyl-1H-indol-3-yl)pyrimidin-2-amine] |
| 0.235 µM | – | – | COc1cc(N2CCC(N3CCN(S(C)(=O)=O)CC3)CC2)ccc1Nc1ncc(Cl)c(-c2c[nH]c3ccccc23)n1 [Example 21, 5-Chloro-4-(1H-indol-3-yl)-N-(2-methoxy-4-{4-[4-(methylsulfonyl)piperazin-1-yl]piperidin-1-yl}phenyl)pyrimidin-2-amine] |
| 0.058 µM | – | – | COc1cc(N2CCC(NC3CC3)CC2)ccc1Nc1ncc(Cl)c(-c2c[nH]c3ccccc23)n1 [Example 6, 5-Chloro-N-(4-(4-(cyclopropylamino)piperidin-1-yl)-2-methoxyphenyl)-4-(1H-indol-3-yl)pyrimidin-2-amine] |
| – | – | 0.061 µM | COc1cc(N2CCC(N)C(F)C2)ccc1Nc1ncc(Cl)c(-c2c[nH]c3ccccc23)n1 (single isomer, unassigned) [Example 45, (trans)-N-(4-(4-amino-3-fluoropiperidin-1-yl)-2-methoxyphenyl)-5-chloro-4-(1H-indol-3-yl)pyrimidin-2-amine] |
| 0.086 µM | – | – | COc1cc(N2CCC(N(C)C)CC2)ccc1Nc1ncc(C)c(-c2c[nH]c3ccccc23)n1 [Example 11, N-(4-(4-(Dimethylamino)piperidin-1-yl)-2-methoxyphenyl)-4-(1H-indol-3-yl)-5-methylpyrimidin-2-amine] |
| 0.023 µM | – | – | CNC1CCN(c2ccc(Nc3ncc(Cl)c(-c4c[nH]c5ccccc45)n3)c(OC)c2)CC1 [Example 2, 5-Chloro-4-(1H-indol-3-yl)-N-(2-methoxy-4-(4-(methylamino)piperidin-1-yl)phenyl)pyrimidin-2-amine] |
| 0.05 µM | – | – | COc1cc(N2CCC(N(C)C)CC2)ccc1Nc1ncc(F)c(-c2c[nH]c3ccccc23)n1 [Example 13, N-(4-(4-(Dimethylamino)piperidin-1-yl)-2-methoxyphenyl)-5-fluoro-4-(1H-indol-3-yl)pyrimidin-2-amine] |
| – | – | 0.039 µM | COc1cc(N2CCC(N)C(F)C2)ccc1Nc1ncc(Cl)c(-c2c[nH]c3ccccc23)n1 (single isomer, unassigned) [Example 46, (trans)-N-(4-(4-amino-3-fluoropiperidin-1-yl)-2-methoxyphenyl)-5-chloro-4-(1H-indol-3-yl)pyrimidin-2-amine] |
| 0.057 µM | – | – | COc1cc(N2CCC(N3CC[C@@H](F)C3)CC2)ccc1Nc1ncc(Cl)c(-c2c[nH]c3ccccc23)n1 [Example 22, 5-Chloro-N-(4-{4-[(3R)-3-fluoropyrrolidin-1-yl]piperidin-1-yl}-2-methoxyphenyl)-4-(1H-indol-3-yl)pyrimidin-2-amine] |
| 0.258 µM | – | – | COc1cc(N2CCC(N3CCN(C)CC3)CC2)c(F)cc1Nc1ncc(C)c(-c2c[nH]c3ccccc23)n1 [Example 38, N-[5-fluoro-2-methoxy-4-[4-(4-methylpiperazin-1-yl)-1-piperidyl]phenyl]-4-(1H-indol-3-yl)-5-methyl-pyrimidin-2-amine] |
| 0.029 µM | – | – | COc1cc(N2CCC(NCCO)CC2)ccc1Nc1ncc(Cl)c(-c2c[nH]c3ccccc23)n1 [Example 20, 2-(1-(4-(5-Chloro-4-(1H-indol-3-yl)pyrimidin-2-ylamino)-3-methoxyphenyl)piperidin-4-ylamino)ethanol] |
| 0.14 µM | – | – | COc1cc(N2CCC(N3C[C@@H](C)O[C@@H](C)C3)CC2)ccc1Nc1ncc(Cl)c(-c2c[nH]c3ccccc23)n1 [Example 24, 5-Chloro-N-(4-(4-((2S,6R)-2,6-dimethylmorpholino)piperidin-1-yl)-2-methoxyphenyl)-4-(1H-indol-3-yl)pyrimidin-2-amine] |

From US8461170B2, “Chemical compounds” (Astrazeneca AB, priority 2010, dated 2013)
